Results reported in US20100179158A1, “INHIBITORS OF CYCLIC AMP PHOSPHODIESTERASES” (priority 2007, published 2010).

Biological target: T1, PDE4A5 (Rattus norvegicus, UniProt P54748)
T1 construct: targets used in the assays are full-length proteins (as opposed to simply the catalytic domain); expressed in transfected cells; host or cells: Schizosaccharomyces pombe, gene integrated at the cgs2 locus
T1 sequence (P54748 1-844): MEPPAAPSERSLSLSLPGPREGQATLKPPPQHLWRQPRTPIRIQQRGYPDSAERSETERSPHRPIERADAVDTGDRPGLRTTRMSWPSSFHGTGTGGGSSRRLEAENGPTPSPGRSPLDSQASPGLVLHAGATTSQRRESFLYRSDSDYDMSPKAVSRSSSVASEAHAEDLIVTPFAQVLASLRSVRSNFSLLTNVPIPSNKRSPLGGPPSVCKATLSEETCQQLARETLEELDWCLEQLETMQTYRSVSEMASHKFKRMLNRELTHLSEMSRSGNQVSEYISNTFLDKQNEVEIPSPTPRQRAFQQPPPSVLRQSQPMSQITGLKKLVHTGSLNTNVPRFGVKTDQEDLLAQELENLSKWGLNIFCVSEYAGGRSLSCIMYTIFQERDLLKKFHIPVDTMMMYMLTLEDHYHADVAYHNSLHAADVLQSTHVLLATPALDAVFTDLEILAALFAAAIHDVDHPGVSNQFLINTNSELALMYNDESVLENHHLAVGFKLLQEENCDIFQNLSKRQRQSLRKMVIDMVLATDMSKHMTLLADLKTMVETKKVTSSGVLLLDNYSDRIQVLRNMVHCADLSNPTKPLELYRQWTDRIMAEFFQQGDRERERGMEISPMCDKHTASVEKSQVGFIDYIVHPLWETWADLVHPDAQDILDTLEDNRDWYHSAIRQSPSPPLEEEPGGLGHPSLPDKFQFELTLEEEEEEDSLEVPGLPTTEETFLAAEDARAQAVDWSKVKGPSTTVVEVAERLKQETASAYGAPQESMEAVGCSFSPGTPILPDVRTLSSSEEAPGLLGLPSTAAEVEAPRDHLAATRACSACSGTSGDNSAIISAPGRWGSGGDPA
Test: Fission yeast 5FOA growth assay, strain expressing PDE4A5
Type: cell-based
Conditions: 5FOA growth screen; for 2 Assay (2 uM), PDE 4A5: 2 uM compound; for 1 Assay (20 uM), PDE 4A5: 20 uM compound
Description: High throughput drug screens were carried out at the Broad Institute's Chemical Biology Program screening facility (Broad Institute, Cambridge, Mass.). Depending upon the strain, cultures were pregrown to exponential phase in EMM complete medium containing from 0.5 to 2.5 mM cAMP to repress fbp1-ura4 transcription. Cells were collected by centrifugation, resuspended in 5FOA medium, and 25 μl were transferred to 384-well microtiter dishes (untreated, with flat clear bottoms) that had been pre-filled with 25 μl 5FOA medium and pre-pinned with 100 nl of compounds (stock solutions were generally 10 mM) from a subset of the Prestwick Bioactive and the Microsource Spectrum compound libraries. Starting cell concentrations ranged from 0.5×10^5 to 4×10^5 cells/ml depending on the screening strain. […] Other positive control dishes contained 5 mM cAMP in the 5FOA medium. Cultures were grown for 48 hours at 30° C., sealed in an airtight container with moist paper towels to prevent evaporation. Optical densities (OD600) of cultures were measured using a microplate reader. Bioinformatic analysis of the results to determine composite Z scores was performed as previously described^30, 31.
Cells were pregrown in EMM medium [MP Biomedicals (Solon, OH), 3% glucose, filter-sterilized to avoid carmelization, which would introduce variability into the optical density of the medium] containing from 0 mM to 2.5 mM cAMP (or either 0.5 mM or 1.0 mM cGMP). This was to repress expression of the fbp1-ura4 reporter prior to exposure of cells to 5FOA medium. Cells were grown at 30° C. to exponential phase (approximately 10^7 cells/ml). Cells were collected by centrifugation and resuspended in 5FOA medium, and 25 μl were transferred to 384-well microtiter dishes (untreated, with flat clear bottoms) that had been pre-filled with 25 μl 5FOA medium and pre-pinned with 100 nl of compounds (stock solutions were generally 10 mM). Starting cell concentrations ranged from 0.5×10^5 to 4×10^5 cells/ml depending on the screening strain. […] Other positive control dishes contained 5 mM cAMP in the 5FOA medium for PDEs that lack appropriate control compounds. Cultures were grown for 48 hours at 30° C., sealed in an airtight container with moist paper towels to prevent evaporation. Optical densities (OD600) of cultures were measured using a microplate reader. Bioinformatic analysis of the results to determine composite Z scores was performed as previously described (1, 3).

| 2 Assay (2 uM), PDE 4A5 | 1 Assay (20 uM), PDE 4A5 | SMILES |
| --- | --- | --- |
| 13.66 | −0.06 | COC(=O)C1=C(C)N(C2CCCCC2)C(=O)/C1=C\c1cccs1 [Compound 22] |
| 12.63 | 65.67 | COC(=O)C1=C(C)N(c2ccccc2Cl)C(=O)/C1=C\c1cccs1 [Compound 27] |
|  | 1.73 ND ND ND ND | COC(=O)C1=C(C)N(c2ccc(C(C)C)cc2)C(=O)/C1=C\c1cccs1 [2008, O19] |

More lines, now with the values behind:

| SMILES | 2 Assay (2 uM), PDE 4A5 | 1 Assay (20 uM), PDE 4A5 |
| --- | --- | --- |
| COC(=O)C1=C(C)N(c2ccccc2F)C(=O)/C1=C\c1cccc(OC)c1O [2008, C21] |  | 1.80 ND ND ND ND |
| Cc1ccc2c(c1)c1nc3ccccc3nc1n2C(C)C [Compound 41] |  | 84.08 |
| COC(=O)C1=C(C)N(c2ccccc2)/C(=C/c2cccs2)C1=O [2008, K19] |  | −0.06 ND ND ND ND |
